Data from US20090093485A1, “Novel Sulphonamide Derivatives as Glucocorticoid Receptor Modulators for the Treatment of Inflammatory Diseases” (ASTRAZENECA AB, priority 2004, published 2009).

What follows are compounds tested against T1, recombinant human GR (Homo sapiens, UniProt P04150) (assay: Human Glucocorticoid Receptor (GR) Assay (fluorescence polarization, Panvera/Invitrogen kit)). Details: GS Red tracer, incubated at room temperature for 2 hours, 100% control 10 μM Dexamethasone, read-out: GRhuFL_FP_v2 (GR-binders) IC50.
T1 construct: purchased Panvera/Invitrogen P2812 (kit P2893)
T1 sequence (P04150 1-777): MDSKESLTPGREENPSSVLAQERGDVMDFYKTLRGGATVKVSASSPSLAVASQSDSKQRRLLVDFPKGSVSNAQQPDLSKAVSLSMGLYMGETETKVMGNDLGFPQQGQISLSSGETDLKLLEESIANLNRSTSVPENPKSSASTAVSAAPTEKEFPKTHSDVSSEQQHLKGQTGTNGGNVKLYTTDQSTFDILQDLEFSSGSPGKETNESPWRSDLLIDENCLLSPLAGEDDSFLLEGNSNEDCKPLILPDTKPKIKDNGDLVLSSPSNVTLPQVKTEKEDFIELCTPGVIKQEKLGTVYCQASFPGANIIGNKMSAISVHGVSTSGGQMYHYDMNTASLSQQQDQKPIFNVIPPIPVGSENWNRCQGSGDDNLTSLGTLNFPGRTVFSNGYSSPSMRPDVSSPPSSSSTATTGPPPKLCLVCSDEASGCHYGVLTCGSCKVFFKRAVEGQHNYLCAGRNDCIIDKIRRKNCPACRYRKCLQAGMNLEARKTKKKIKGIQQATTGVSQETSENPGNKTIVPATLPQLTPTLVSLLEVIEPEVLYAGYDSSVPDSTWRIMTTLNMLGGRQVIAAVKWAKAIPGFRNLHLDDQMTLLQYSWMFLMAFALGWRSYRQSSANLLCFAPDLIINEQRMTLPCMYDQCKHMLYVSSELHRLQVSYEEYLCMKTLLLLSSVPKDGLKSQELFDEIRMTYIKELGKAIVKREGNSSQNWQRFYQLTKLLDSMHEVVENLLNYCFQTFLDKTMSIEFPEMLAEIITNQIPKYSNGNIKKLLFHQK
Assay type: binding
Description: Human Glucocorticoid Receptor (GR) Assay
The assay is based on a commercial kit from Panvera/Invitrogen (Part number P2893). The assay technology is fluorescence polarization. The kit utilises recombinant human GR (Panvera, Part number P2812), a Fluoromone™ labelled tracer (GS Red, Panvera, Part number P2894) and a Stabilizing Peptide 10X (Panvera, Part number P2815). The GR and Stabilizing Peptide reagents are stored at −70° C. while the GS Red is stored at −20° C. Also included in the kit are 1M DTT (Panvera, Part number P2325, stored at −20° C.) and GR Screening buffer 10X (Panvera, Part number P2814, stored at −70° C. initially but once thawed stored at room temperature). Avoid repeated freeze/thaws for all reagents. The GR Screening buffer 10X comprises 100 mM potassium phosphate, 200 mM sodium molybdate, 1 mM EDTA and 20% DMSO.
Test compounds (1 μL) and controls (1 μL) in 100% DMSO were added to black polystyrene 384-well plates (Greiner low volume black flat-bottom, part number 784076). […] was 100% DMSO and 100% control was 10 μM Dexamethasone. Background solution (8 μL; assay buffer 10X, Stabilizing Peptide, DTT and ice cold MQ water) was added to the background wells. GS Red solution (7 μL; assay buffer 10X, Stabilizing Peptide, DTT, GS Red and ice cold water) was added to all wells except background wells. GR solution (7 μL; assay buffer 10X, Stabilizing Peptide, DTT, GR and ice cold water) was added to all wells. The plate was sealed and incubated in a dark at room temperature for 2 hours. The plate was read in an Analyst plate reader (LJL Biosystems/Molecular Devices Corporation) or other similar plate reader capable of recording fluorescence polarization (excitation wavelength 530 nm, emission wavelength […] and a dichroic mirror at 561 nm). The IC50 values were calculated using XLfit model 205.

SMILES	IC50
O=[N+]([O-])c1cc(Cl)ccc1NCCCNS(=O)(=O)c1ccc2ccccc2c1 [Example 5]	640 nM
CCOc1ccc(S(=O)(=O)NCCc2ccc(S(N)(=O)=O)cc2)c2cccnc12 [Example 6]	700 nM
Cc1csc(NC(=O)CN(CC(C)C)S(=O)(=O)c2cccc3ccccc23)n1 [Example 7]	700 nM
Cc1cc(C)c(S(=O)(=O)NCCc2c(C)[nH]c3ccc(C)cc23)c(C)c1 [Example 8]	1200 nM
CCCN(c1nc(C)c(Cl)c(OC)n1)S(=O)(=O)c1ccc(C)cc1 [Example 9]	1600 nM
CC(C)c1cc(C(C)C)c(S(=O)(=O)NCc2ccncc2)c(C(C)C)c1 [Example 10]	600 nM
COC(=O)c1c(C)oc2ccc(N(C(=O)c3ccncc3)S(=O)(=O)c3ccc(C)cc3C)cc12 [Example 11]	2200 nM
Cc1cc(NC(=O)CN(C2CCCCC2)S(=O)(=O)c2cccc3ccccc23)no1 [Example 12]	6000 nM
Cc1cc(NC(=O)CN(CC2CCCCC2)S(=O)(=O)c2cccc3ccccc23)no1 [Example 13]	2200 nM
C=CCN(c1nc(C)c(Cl)c(OC)n1)S(=O)(=O)c1ccc(C)cc1 [Example 14]	1700 nM
CCNc1nc(NC(C)C)nc(OCCNS(=O)(=O)c2cc(C)ccc2C)n1 [Example 15]	6300 nM
CCCCOc1ccc(NS(=O)(=O)c2cccc3c(N(C)C)cccc23)cn1 [Example 16]	4400 nM
Cc1cc(Br)ccc1S(=O)(=O)NC(C)CCc1ccccc1 (stereo not drawn) [Example 19, 4-Bromo-2-methyl-N-(1-methyl-3-phenyl-propyl)-benzenesulfonamide]	540 nM
Cc1cc(C)c(S(=O)(=O)NC(C)CCc2ccccc2)c(C)c1 (stereo not drawn) [Example 32, 2,4,6-Trimethyl-N-(1-methyl-3-phenyl-propyl)-benzenesulfonamide]	90 nM
Cc1cccc(C)c1OCC(C)NS(=O)(=O)c1cccc([N+](=O)[O-])c1 (stereo not drawn) [Example 34, N-[2-(2,6-Dimethyl-phenoxy)-1-methyl-ethyl]-3-nitro-benzenesulfonamide]	3000 nM
Cc1cc(C)c(S(=O)(=O)N[C@@H](C)COc2cccc3cnccc23)c(C)c1 [Example 77, N-[(1S)-2-(5-Isoquinolinyloxy)-1-methylethyl]-2,4,6-trimethylbenzenesulfonamide]	17 nM
Cc1cc(C)c(S(=O)(=O)N[C@@H](C)COc2cccc3[nH]ccc23)c(C)c1 [Example 78, N-[(1S)-2-(1H-Indol-4-yloxy)-1-methylethyl]-2,4,6-trimethylbenzenesulfonamide]	23 nM
Cc1cc(C)c(S(=O)(=O)N[C@@H](C)COc2cccc3ncccc23)c(C)c1 [Example 79, 2,4,6-Trimethyl-N-[(1S)-1-methyl-2-(5-quinolinyloxy)ethyl]benzenesulfonamide]	140 nM
Cc1cc(C)c(S(=O)(=O)N[C@@H](C)COc2ccc3c(c2)OCO3)c(C)c1 [Example 80, N-[(1S)-2-(1,3-Benzodioxol-5-yloxy)-1-methylethyl]-2,4,6-trimethylbenzenesulfonamide]	230 nM
Cc1cc(C)c(S(=O)(=O)N[C@@H](C)COc2ccnc3ccccc23)c(C)c1 [Example 81, 2,4,6-Trimethyl-N-[(1S)-1-methyl-2-(4-quinolinyloxy)ethyl]benzenesulfonamide]	370 nM
Cc1cc(C)c(S(=O)(=O)N[C@@H](C)COc2ncnc3ccccc23)c(C)c1 [Example 82, 2,4,6-Trimethyl-N-[(1S)-1-methyl-2-(4-quinazolinyloxy)ethyl]benzenesulfonamide]	3400 nM
Cc1cc(C)c(S(=O)(=O)N[C@@H](C)COc2cccc3cccnc23)c(C)c1 [Example 83, 2,4,6-Trimethyl-N-[(1S)-1-methyl-2-(8-quinolinyloxy)ethyl]benzenesulfonamide]	8900 nM
Cc1cc(C)c(S(=O)(=O)N[C@@H](C)CNc2ccc(C)c3ncccc23)c(C)c1 [Example 123, 2,4,6-Trimethyl-N-{(1S)-1-methyl-2-[(8-methylquinolin-5-yl)amino]ethyl}-benzenesulfonamide]	18 nM
Cc1cc(C)c(S(=O)(=O)N[C@@H](C)CNc2c(C)ccc3ncccc23)c(C)c1 [Example 124, 2,4,6-Trimethyl-N-{(1S)-1-methyl-2-[(6-methylquinolin-5-yl)amino]ethyl}-benzenesulfonamide]	20 nM
Cc1cc(C)c(S(=O)(=O)N[C@@H](C)CNc2cccc3[nH]ncc23)c(C)c1 [Example 125, N-[(1S)-2-(1H-Indazol-4-ylamino)-1-methylethyl]-2,4,6-trimethylbenzenesulfonamide]	42 nM
Cc1cc(C)c(S(=O)(=O)N[C@@H](C)CNc2cccc3ncccc23)c(C)c1 [Example 126, 2,4,6-Trimethyl-N-[(1S)-1-methyl-2-(quinolin-5-Ylamino)ethyl]benzenesulfonamide]	75 nM
Cc1nn(-c2ccccc2)c(C)c1S(=O)(=O)N[C@@H](C)COc1cccc2cnccc12 [Example 160, N-[(1S)-2-(Isoquinolin-5-yloxy)-1-methylethyl]-3,5-dimethyl-1-phenyl-1-pyrazole-4-sulfonamide]	96 nM
